Measurements as given in ChEMBL document CHEMBL6178021, “Optimization of Tambjamines Active against Multiple Stages of Malaria Parasites” (J Med Chem, 2025).
Converted amounts (≈) assume the structure as drawn.

Columns and labels:
[1] = tested on: HepG2; assay: Cytotoxicity against human HepG2 cells assessed as cell viability measured after 48 hrs by MTT assay; format: toxicity, cell-based; conditions: hepg2
[2] = in vitro; conditions: human
Description: Selectivity index, ratio of IC50 for cytotoxicity against human HepG2 cells to IC50 for antiplasmodial activity against asexual blood-stage Plasmodium falciparum D6

[3] = tested on: Plasmodium yoelii; assay: Antimalarial activity against erythrocytic Plasmodium yoelii MRA-428 infected in CF1 mouse assessed as cured mouse at 10 mg/kg, po once daily for 4 days measured on day 28 day; format: functional, organism-based; conditions: time 4.0 day
[4] = tested on: Plasmodium yoelii; assay: Antimalarial activity against erythrocytic Plasmodium yoelii MRA-428 infected in CF1 mouse assessed as reduction in parasitemia at 10 mg/kg, po once daily for 4 days measured on day 5; format: functional; set-up: scale not given: the % may be the effect or the level left; conditions: time 4 day
[5] = tested on: MDR1 (human); assay: Efflux ratio, ratio of apparent permeability across apical to basolateral side over basolateral to apical side in MDCK transfected with human MDR1 cells incubated for 1 hr by LC-MS analysis; conditions: dog
[6] = tested on: Plasmodium yoelii; assay: Antimalarial activity against erythrocytic Plasmodium yoelii MRA-428 infected in CF1 mouse assessed as reduction in parasitemia at 25 mg/kg, po once daily for 4 days measured on day 5; format: functional; set-up: scale not given: the % may be the effect or the level left; conditions: time 4 day
[7] = tested on: Plasmodium yoelii; assay: Antimalarial activity against erythrocytic Plasmodium yoelii MRA-428 infected in CF1 mouse assessed as reduction in parasitemia at 50 mg/kg, po once daily for 4 days measured on day 5; format: functional; set-up: scale not given: the % may be the effect or the level left; conditions: time 4 day
[8] = in vitro; conditions: mouse, liver microsomes
[9] = Solubility of the compound in potassium phosphate buffer at pH 7.4 by UV-vis spectroscopy; conditions: buffer
[10] = tested on: Plasmodium yoelii; assay: Antimalarial activity against erythrocytic Plasmodium yoelii MRA-428 infected in CF1 mouse assessed as cured mouse at 25 mg/kg, po once daily for 4 days measured on day 28 day; format: functional, organism-based; conditions: time 4.0 day
[11] = Metabolic stability in mouse liver microsomes assessed as half life measured up to 60 mins by LC/MS analysis; format: ADME, Microsome
[12] = tested on: MDR1 (human); assay: Apparent permeability across basolateral to apical side in MDCK transfected with human MDR1 cells incubated for 1 hr by LC-MS analysis; conditions: dog, MDCK-MDR1
[13] = Metabolic stability in human liver microsomes assessed as half life measured up to 60 mins by LC/MS analysis; format: ADME, Microsome
[14] = tested on: Plasmodium falciparum; assay: microbe, parasite or virus in culture; conditions: Dd2, 72 h
Description: Antiplasmodial activity against asexual blood-stage Plasmodium falciparum Dd2 using 2% haematocrit and 0.2% parasitemia assessed as reduction in fluorescence measured after 72 hrs by Malaria SYBR Green I-based Fluorescence (MSF) assay

[15] = tested on: MDR1 (human); assay: Apparent permeability across apical to basolateral side in MDCK transfected with human MDR1 cells incubated for 1 hr by LC-MS analysis; conditions: dog, MDCK-MDR1
[16] = tested on: Plasmodium falciparum; assay: Antiplasmodial activity against asexual blood-stage Plasmodium falciparum Tm90-C2B using 2% haematocrit and 0.2% parasitemia assessed as reduction in fluorescence measured after 72 hrs by Malaria SYBR Green I-based Fluorescence (MSF) assay; format: functional, organism-based
[17] = tested on: Plasmodium falciparum; assay: microbe, parasite or virus in culture; conditions: D6, 72 h
Description: Antiplasmodial activity against asexual blood-stage Plasmodium falciparum D6 using 2% haematocrit and 0.2% parasitemia assessed as reduction in fluorescence measured after 72 hrs by Malaria SYBR Green I-based Fluorescence (MSF) assay

[18] = tested on: Plasmodium yoelii; assay: Antimalarial activity against erythrocytic Plasmodium yoelii MRA-428 infected in CF1 mouse assessed as cured mouse at 50 mg/kg, po once daily for 4 days measured on day 28 day; format: functional, organism-based; conditions: time 4.0 day
[19] = in vitro; conditions: human, liver microsomes
[20] = Chemical stability of the compound assessed as half life in PBS buffer at pH 7.4; format: physicochemical
[21] = Half life in ICR-CD1 mouse plasma at 40 mg/kg, po; format: ADME, organism-based
[22] = Chemical stability of the compound assessed as half life in acetate buffer at pH 4.5; format: physicochemical
[23] = Half life in ICR-CD1 mouse liver at 40 mg/kg, po; format: ADME, organism-based
[24] = Tmax in ICR-CD1 mouse liver at 40 mg/kg, po; format: ADME, organism-based
[25] = AUCextrap (extrapolated from the last observed time point) in ICR-CD1 mouse liver at 40 mg/kg, po; format: ADME, organism-based; conditions: in vivo
[26] = Mutagenicity in Salmonella typhimurium TA98 at 10 uM by Ames test; format: toxicity; conditions: salmonella enterica subsp. enterica serovar typhimurium
[27] = AUCinf in ICR-CD1 mouse liver at 40 mg/kg, po; format: ADME, organism-based
[28] = Toxicity in Albino C57BL/6 mouse inoculated with Luciferase-expressing Plasmodium berghei sporozoites at 40 mg/kg, po; format: organism-based; conditions: in vivo
[29] = AUCinf in ICR-CD1 mouse plasma at 40 mg/kg, po; format: ADME, organism-based; conditions: in vivo
[30] = tested on: Plasmodium berghei; assay: Anti-malarial activity against Luciferase-expressing Plasmodium berghei sporozoites inoculated in Albino C57BL/6 mouse malaria model assessed as increase in survival time at 40 mg/kg, po relative to control; format: functional
[31] = MRTlast in ICR-CD1 mouse plasma at 40 mg/kg, po; format: ADME, organism-based
[32] = tested on: Plasmodium berghei; assay: Anti-malarial activity against Luciferase-expressing Plasmodium berghei sporozoites inoculated in Albino C57BL/6 mouse malaria model assessed as reduction in parasites in liver at 40 mg/kg, po by measuring bioluminescence signal measured after 48 hrs relative to control; format: functional; set-up: scale not given: the % may be the effect or the level left
[33] = Chemical stability of the compound assessed as half life in PBS buffer at pH 6.6 to 9; format: physicochemical
[34] = tested on: Plasmodium falciparum; assay: Anti-plasmodial activity against Plasmodium falciparum Dd2 assessed as growth inhibition measured after 72 hrs by Malaria SYBR Green I-based Fluorescence (MSF) assay; format: functional, organism-based; conditions: Dd2, 72 h
[35] = Cmax in ICR-CD1 mouse plasma at 40 mg/kg, po; format: ADME, organism-based
[36] = tested on: Plasmodium yoelii; assay: Antimalarial activity against erythrocytic Plasmodium yoelii MRA-428 infected in CF1 mouse assessed as reduction in parasitemia at 80 mg/kg, po once daily for 4 days measured on day 5; format: functional; set-up: scale not given: the % may be the effect or the level left; conditions: time 4 day
[37] = tested on: Plasmodium falciparum; assay: Anti-plasmodial activity against Plasmodium falciparum 3D7 infected in erythrocytes assessed as parasite reduction ratio at 1.188 uM measured 22 to 28 days; format: functional; conditions: time 22-28 day
[38] = tested on: Plasmodium berghei; assay: Anti-malarial activity against Luciferase-expressing Plasmodium berghei sporozoites inoculated in po dosed Albino C57BL/6 mouse malaria model assessed as elimination of parasites in blood by measuring bioluminescence signal measured after 72 hrs; format: functional, organism-based
[39] = tested on: Plasmodium falciparum; assay: Anti-plasmodial activity against ART-resistant Plasmodium falciparum DR4 assessed as growth inhibition measured after 72 hrs by Malaria SYBR Green I-based Fluorescence (MSF) assay; format: functional, organism-based; conditions: DR4, 72 h
[40] = tested on: Plasmodium falciparum; assay: Anti-plasmodial activity against Plasmodium falciparum 3D7 infected in erythrocytes assessed as Lag phase (time to observe the maximal killing effect of the drug) at 1.188 uM; format: functional
[41] = MRTlast in ICR-CD1 mouse liver at 40 mg/kg, po; format: ADME, organism-based
[42] = Apparent oral clearance in ICR-CD1 mouse liver at 40 mg/kg, po; format: ADME, organism-based
[43] = tested on: Plasmodium falciparum; assay: Anti-plasmodial activity against ART-resistant Plasmodium falciparum DR1 assessed as growth inhibition measured after 72 hrs by Malaria SYBR Green I-based Fluorescence (MSF) assay; format: functional, organism-based; conditions: DR1, 72 h
[44] = molecular target: Voltage-gated inwardly rectifying potassium channel KCNH2 (Homo sapiens, UniProt Q12809); assay: Inhibition of hERG expressed in CHO cells by Whole cell patch clamp assay; format: toxicity, cell-based
Sequence of Voltage-gated inwardly rectifying potassium channel KCNH2 (Q12809 whole entry): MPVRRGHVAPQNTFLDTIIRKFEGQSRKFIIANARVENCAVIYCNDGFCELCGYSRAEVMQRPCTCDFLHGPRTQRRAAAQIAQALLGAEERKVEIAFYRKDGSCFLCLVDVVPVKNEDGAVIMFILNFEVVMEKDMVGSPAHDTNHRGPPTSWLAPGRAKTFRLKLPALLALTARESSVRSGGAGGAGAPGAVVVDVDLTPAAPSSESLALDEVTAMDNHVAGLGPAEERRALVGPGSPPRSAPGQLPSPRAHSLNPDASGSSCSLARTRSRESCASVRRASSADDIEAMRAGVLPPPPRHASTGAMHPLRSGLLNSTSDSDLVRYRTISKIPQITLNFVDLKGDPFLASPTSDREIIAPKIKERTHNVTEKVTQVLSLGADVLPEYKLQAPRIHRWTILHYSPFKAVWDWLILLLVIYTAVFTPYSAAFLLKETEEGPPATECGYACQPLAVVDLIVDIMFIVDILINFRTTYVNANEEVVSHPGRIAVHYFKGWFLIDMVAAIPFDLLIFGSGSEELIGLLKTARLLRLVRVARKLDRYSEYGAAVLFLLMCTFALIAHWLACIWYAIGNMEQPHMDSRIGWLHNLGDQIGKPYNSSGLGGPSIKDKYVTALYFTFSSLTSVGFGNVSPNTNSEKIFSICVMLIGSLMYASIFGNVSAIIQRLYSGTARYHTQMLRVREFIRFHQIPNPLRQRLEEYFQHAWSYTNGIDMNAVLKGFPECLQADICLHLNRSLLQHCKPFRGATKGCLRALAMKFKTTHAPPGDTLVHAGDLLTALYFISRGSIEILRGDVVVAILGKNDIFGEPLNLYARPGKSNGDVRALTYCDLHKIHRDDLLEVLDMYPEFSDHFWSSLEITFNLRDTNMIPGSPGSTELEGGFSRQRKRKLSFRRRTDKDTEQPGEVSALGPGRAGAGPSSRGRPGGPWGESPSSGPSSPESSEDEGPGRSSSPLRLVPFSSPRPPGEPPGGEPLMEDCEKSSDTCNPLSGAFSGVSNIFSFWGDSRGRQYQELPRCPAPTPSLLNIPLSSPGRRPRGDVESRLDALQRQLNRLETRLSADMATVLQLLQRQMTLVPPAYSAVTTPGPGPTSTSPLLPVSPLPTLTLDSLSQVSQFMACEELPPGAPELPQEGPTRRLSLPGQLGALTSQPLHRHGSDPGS

[45] = AUCextrap (extrapolated from the last observed time point) in ICR-CD1 mouse plasma at 40 mg/kg, po; format: ADME, organism-based; conditions: in vivo
[46] = Mutagenicity in Salmonella typhimurium TA98 with S9 fraction at 10 uM by Ames test; format: toxicity, subcellular; conditions: salmonella enterica subsp. enterica serovar typhimurium, s9, 10 µM
[47] = tested on: Plasmodium berghei; assay: Anti-malarial activity against Luciferase-expressing Plasmodium berghei sporozoites inoculated in Albino C57BL/6 mouse malaria model assessed as reduction in parasites in liver at 40 mg/kg, po by measuring bioluminescence signal measured after 72 hrs relative to control; format: functional; set-up: scale not given: the % may be the effect or the level left
[48] = Apparent oral clearance in ICR-CD1 mouse plasma at 40 mg/kg, po; format: ADME, organism-based; conditions: in vivo
[49] = tested on: Plasmodium berghei; assay: Anti-malarial activity against Luciferase-expressing Plasmodium berghei sporozoites inoculated in po dosed Albino C57BL/6 mouse malaria model assessed as elimination of parasites in liver by measuring bioluminescence signal measured after 48 hrs; format: functional, organism-based
[50] = Tmax in ICR-CD1 mouse plasma at 40 mg/kg, po; format: ADME, organism-based
[51] = AUClast in ICR-CD1 mouse plasma at 40 mg/kg, po; format: ADME, organism-based
[52] = Toxicity in CF1 mouse infected with erythrocytic Plasmodium yoelii MRA-428 assessed as adverse event at 10 to 80 mg/kg, po once daily for 4 days measured on day 28 day; format: organism-based; conditions: in vivo, 96 h, dose 10-80 mg/kg, time 4 day
[53] = AUClast in ICR-CD1 mouse liver at 40 mg/kg, po; format: ADME, organism-based
[54] = tested on: Plasmodium falciparum; assay: Anti-plasmodial activity against Plasmodium falciparum 3D7 infected in erythrocytes assessed as parasite clearance time at 1.188 uM measured 22 to 28 days relative to initial population; format: functional; conditions: time 22-28 day
[55] = tested on: Plasmodium yoelii; assay: Antimalarial activity against erythrocytic Plasmodium yoelii MRA-428 infected in CF1 mouse assessed as cured mouse at 80 mg/kg, po once daily for 4 days measured on day 28 day; format: functional, organism-based; conditions: time 4.0 day

In the case of `CCC1=C(CC)/C(=C/NC23C[C@H]4C[C@@H](C2)C[C@@H](C3)C4)N=C1c1ccc(C)[nH]1`, the IC50 [1] is reported as 2.45 µM, the selectivity ratio [2] is reported as 2620 and the Activity [3] is reported as “Not active; None Of The Mouse Cured Out Of Four Tested”. For the same compound, the Activity [4] was 100%, the efflux ratio at 1 h [5] was 0.24 and the Activity [6] was 100%. The Activity [7] was 100%, the microsomal CLint at 1 h [8] was 13.8 µL/min/mg and the solubility [9] was 10.9 µM (≈ 3.96 µg/mL). The Activity [10] was “Not active; None Of The Mouse Cured Out Of Four Tested”, the half-life [11] was > 60 min and the Papp B→A at 1 h [12] was 0.006 ×10⁻⁶ cm/s. The half-life [13] was 34.9 min, the IC50 [14] was 0.823 nM and the Papp A→B at 1 h [15] was 0.027 ×10⁻⁶ cm/s. For the same compound, the IC50 [16] was 1.01 nM, the IC50 [17] was 0.934 nM and the Activity [18] was “Active; Two Mouse Cured Out Of Four”. It also gave a microsomal CLint at 1 h [19] of 39.7 µL/min/mg.
For `CCC1=C(CC)/C(=C/NC2CCCCC2)N=C1c1ccc(C)[nH]1`, the t1/2 [20] was 270 min, the IC50 [1] was 7.53 µM and the half-life [21] was 338 min. For the same compound, the half-life [22] was ≥ 200 min, the half-life [23] was 304 min and the Tmax [24] was 30 h. For the same compound, the “%AUCextra” value [25] was 0.5%, the Activity [26] was “Non-toxic” and the Activity [4] was 88.6%. For the same compound, the AUC(0-inf) [27] was 1980 ng·h/mL, the Activity [28] was “Non-toxic” and the Activity [6] was 100%. The AUC [29] was 68123 ng·h/mL, the Survival [30] was 3 days and the MRT last [31] was 31.5 h. The Activity [32] was 72%, the half-life [33] was ≥ 200 min and the microsomal CLint at 1 h [8] was 19.9 µL/min/mg. For the same compound, the IC50 [34] was 13.9 nM, the Activity [10] was “Active; Four Mouse Cured Out Of Four” and the Cmax [35] was 1440 ng/mL. The Activity [36] was 100%, the half-life [11] was > 60 min and the “log(activity)” value [37] was 3.83. For the same compound, the Activity [38] was “Dose-dependent-effect”, the IC50 [39] was 14.1 nM and the Time [40] was 0 h. It also gave a Papp B→A at 1 h [12] of 0.002 ×10⁻⁶ cm/s, a half-life [13] of 58.7 min and an MRT last [41] of 31.6 h. It also gave a CL/F [42] of 10.8 mL/min/kg, an IC50 [14] of 8.04 nM and an IC50 [43] of 16.4 nM. For the same compound, the IC50 [44] was 4.4 µM, the IC20 ([44]; human, cho) was 1900 nM and the “%AUCextra” value [45] was 0.83%. The Activity [46] was “Non-toxic”, the Activity [47] was 97% and the CL/F [48] was 18.7 mL/h/kg. The Activity [49] was “Dose-dependent-effect”, the Tmax [50] was 30 h and the Papp A→B at 1 h [15] was 0.013 ×10⁻⁶ cm/s. The AUC(0-t) [51] was 67600 ng·h/mL, the IC50 [16] was 18.4 nM and the Activity [52] was “Non-toxic”. The AUC(0-t) [53] was 1960 ng·h/mL, the T99.9% [54] was 39.5 h and the Activity [55] was “Active; Four Mouse Cured Out Of Four”. For the same compound, the microsomal CLint at 1 h [19] was 23.6 µL/min/mg.
